What was measured:
[1] = system: chickweed; test: Test D postemergence; format: in vivo, Stellaria media; settings: Stellaria media, post-emergence
Text: (§1) Seeds of plant species selected from bluegrass (annual bluegrass, Poa annua), blackgrass (Alopecurus myosuroides), canarygrass (littleseed canarygrass, Phalaris minor), chickweed (common chickweed, Stellaria media), galium (catchweed bedstraw, Galium aparine), bromegrass, downy (downy bromegrass, Bromus tectorum), field poppy (Papaver rhoeas), field violet (Viola arvensis), green foxtail (Setaria viridis), deadnettle (henbit deadnettle, Lamium amplexicaule), Italian ryegrass (Lolium multiflorum), kochia (Kochia scoparia), lambsquarters (Chenopodium album), oilseed rape (Brassica napus), pigweed (Amaranthus retroflexus), chamomile (scentless chamomile, Matricaria inodora), Russian thistle (Salsola kali), speedwell (bird's-eye speedwell, Veronica persica), spring barley (Hordeum vulgare), spring wheat (Triticum aestivum), wild buckwheat (Polygonum convolvulus), wild mustard (Sinapis arvensis), wild oat (Avena fatua), wild radish (Raphanus raphanistrum), windgrass (Apera spica-venti), winter barley (Hordeum vulgare), and winter wheat (Triticum aestivum) were planted into a silt loam soil and treated preemergence with test chemicals formulated in a non-phytotoxic solvent mixture which included a surfactant.
(§2) At the same time, these species were planted in pots containing Redi-Earth® planting medium (Scotts Company, 14111 Scottslawn Road, Marysville, Ohio 43041) comprising spaghnum peat moss, vermiculite, wetting agent and starter nutrients and treated with postemergence applications of the test chemicals formulated in the same manner. Plants ranged in height from 2 to 18 cm (1- to 4-leaf stage). Treated plants and controls were maintained in a controlled growth environment for 7 to 21 days after which time all species were compared to controls and visually evaluated. Plant response ratings, summarized in Table D, are based on a scale of 0 to 100 where 0 is no effect and 100 is complete control. A dash (-) response means no test result.

[2] = system: wild mustard; test: Test D preemergence; format: in vivo, Sinapis arvensis; settings: Brassica, pre-emergence
Text: as §1, §2

[3] = system: lambsquarters; test: Test D postemergence; format: in vivo, Chenopodium album; settings: Chenopodium album, post-emergence
Text: as §1, §2

[4] = system: wild buckwheat; test: Test D postemergence; format: in vivo, Polygonum convolvulus; settings: Fallopia convolvulus, post-emergence, Postemergence, scale 0 to 100 (0 no effect, 100 complete control), read-out: Plant response rating, Buckwheat, Wild
Text: as §1, §2

[5] = system: spring wheat; test: Test D preemergence; format: in vivo, Triticum aestivum; settings: Triticum aestivum, pre-emergence
In short: (§3)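 Seeds sown in silt loam soil got preemergence sprays; plants in peat/vermiculite potting medium were sprayed postemergence at 2–18 cm (1- to 4-leaf stage). Chemicals were formulated in a non-phytotoxic solvent mixture with surfactant. After 7 to 21 days in a controlled environment, injury was rated visually versus controls, 0 (no effect) to 100 (complete control).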

[6] = system: winter wheat; test: Test D preemergence; format: in vivo, Triticum aestivum; settings: Triticum aestivum, pre-emergence
In short: as §3

[7] = system: bluegrass; test: Test D preemergence; format: in vivo, Poa annua; settings: Poa annua, pre-emergence
In short: as §3

[8] = system: field poppy; test: Test D postemergence; format: in vivo, Papaver rhoeas; settings: Papaver rhoeas, post-emergence
In short: as §3

[9] = system: pigweed; test: Test D postemergence; format: in vivo, Amaranthus retroflexus; settings: Amaranthus retroflexus, post-emergence
In short: as §3

[10] = system: deadnettle; test: Test D preemergence; format: in vivo, Lamium amplexicaule; settings: Lamium amplexicaule, pre-emergence
In short: as §3

[11] = system: windgrass; test: Test D postemergence; format: in vivo, Apera spica-venti; settings: Apera spica-venti, post-emergence
Text: as §1, §2

Fc1cccc(Oc2ncc(Cl)cn2)c1-n1cc(C(F)F)nn1 [Compound 141, 5-chloro-2-[2-[4-(difluoromethyl)-1H-1,2,3-triazol-1-yl]-3-fluorophenoxy]pyrimidine]
pest or weed control at 16 g/ha ([1]; 16 g ai/ha, scale 0-100, read-out: Plant response rating, Chickweed): 70% | pest or weed control at 31 g/ha ([1]; 31 g ai/ha, scale 0 to 100 (0 no effect, 100 complete control), read-out: Plant response rating, Chickweed): 90% | pest or weed control at 62 g/ha ([1]; 62 g ai/ha, scale 0 to 100 (0 no effect, 100 complete control), read-out: Plant response rating, Chickweed): 95% | pest or weed control at 125 g/ha ([1]; 125 g ai/ha, scale 0 to 100 (0 no effect, 100 complete control), read-out: Plant response rating, Chickweed): 100% | pest or weed control at 16 g/ha ([2]; 16 g ai/ha, scale 0 (no effect) to 100 (complete control), read-out: Plant response rating, Mustard, Wild): 90% | pest or weed control at 31 g/ha ([2]; 31 g ai/ha, scale 0-100, read-out: Plant response rating, Mustard, Wild): 100% | pest or weed control at 62 g/ha ([2]; 62 g ai/ha, scale 0-100, read-out: Plant response rating, Mustard, Wild): 100% | pest or weed control at 125 g/ha ([2]; 125 g ai/ha, scale 0-100, read-out: Plant response rating, Mustard, Wild): 100% | pest or weed control at 16 g/ha ([3]; 16 g ai/ha, scale 0-100, read-out: Plant response rating, Lambsquarters): 80% | pest or weed control at 31 g/ha ([3]; 31 g ai/ha, scale 0 to 100 (0 no effect, 100 complete control), read-out: Plant response rating, Lambsquarters): 95% | pest or weed control at 62 g/ha ([3]; 62 g ai/ha, scale 0 to 100 (0 no effect, 100 complete control), read-out: Plant response rating, Lambsquarters): 95% | pest or weed control at 125 g/ha ([3]; 125 g ai/ha, scale 0 to 100 (0 no effect, 100 complete control), read-out: Plant response rating, Lambsquarters): 98% | pest or weed control at 16 g/ha ([4]; 16 g ai/ha): 100% | pest or weed control at 31 g/ha ([4]; 31 g ai/ha): 100% | pest or weed control at 62 g/ha ([4]; 62 g ai/ha): 100% | pest or weed control at 125 g/ha ([4]; 125 g ai/ha): 100% | plant injury at 16 g/ha ([5]; 16 g ai/ha, scale 0 (no effect) to 100 (complete control), read-out: Plant response rating, Wheat, Spring): 25% | plant injury at 31 g/ha ([5]; 31 g ai/ha, scale 0 (no effect) to 100 (complete control), read-out: Plant response rating, Wheat, Spring): 30% | plant injury at 62 g/ha ([5]; 62 g ai/ha, scale 0-100, read-out: Plant response rating, Wheat, Spring): 65% | plant injury at 125 g/ha ([5]; 125 g ai/ha, scale 0-100, read-out: Plant response rating, Wheat, Spring): 75% | plant injury at 16 g/ha ([6]; 16 g ai/ha, scale 0 (no effect) to 100 (complete control), read-out: Plant response rating, Wheat, Winter): 15% | plant injury at 31 g/ha ([6]; 31 g ai/ha, scale 0 (no effect) to 100 (complete control), read-out: Plant response rating, Wheat, Winter): 20% | plant injury at 62 g/ha ([6]; 62 g ai/ha, scale 0-100, read-out: Plant response rating, Wheat, Winter): 60% | plant injury at 125 g/ha ([6]; 125 g ai/ha, scale 0-100, read-out: Plant response rating, Wheat, Winter): 60% | pest or weed control at 16 g/ha ([7]; 16 g ai/ha, scale 0 (no effect) to 100 (complete control), read-out: Plant response rating, Bluegrass): 15% | pest or weed control at 31 g/ha ([7]; 31 g ai/ha, scale 0-100, read-out: Plant response rating, Bluegrass): 35% | pest or weed control at 62 g/ha ([7]; 62 g ai/ha, scale 0-100, read-out: Plant response rating, Bluegrass): 90% | pest or weed control at 125 g/ha ([7]; 125 g ai/ha, scale 0-100, read-out: Plant response rating, Bluegrass): 90% | pest or weed control at 16 g/ha ([8]; 16 g ai/ha, scale 0-100, read-out: Plant response rating, Field Poppy): 40% | pest or weed control at 31 g/ha ([8]; 31 g ai/ha, scale 0 to 100 (0 no effect, 100 complete control), read-out: Plant response rating, Field Poppy): 95% | pest or weed control at 62 g/ha ([8]; 62 g ai/ha, scale 0 to 100 (0 no effect, 100 complete control), read-out: Plant response rating, Field Poppy): 90% | pest or weed control at 125 g/ha ([8]; 125 g ai/ha, scale 0 to 100 (0 no effect, 100 complete control), read-out: Plant response rating, Field Poppy): 85% | pest or weed control at 16 g/ha ([9]; 16 g ai/ha, scale 0-100, read-out: Plant response rating, Pigweed): 98% | pest or weed control at 31 g/ha ([9]; 31 g ai/ha, scale 0 to 100 (0 no effect, 100 complete control), read-out: Plant response rating, Pigweed): 98% | pest or weed control at 62 g/ha ([9]; 62 g ai/ha, scale 0 to 100 (0 no effect, 100 complete control), read-out: Plant response rating, Pigweed): 100% | pest or weed control at 125 g/ha ([9]; 125 g ai/ha, scale 0 to 100 (0 no effect, 100 complete control), read-out: Plant response rating, Pigweed): 100% | pest or weed control at 16 g/ha ([10]; 16 g ai/ha, scale 0 (no effect) to 100 (complete control), read-out: Plant response rating, Deadnettle): 90% | pest or weed control at 31 g/ha ([10]; 31 g ai/ha, scale 0-100, read-out: Plant response rating, Deadnettle): 100% | pest or weed control at 62 g/ha ([10]; 62 g ai/ha, scale 0-100, read-out: Plant response rating, Deadnettle): 98% | pest or weed control at 125 g/ha ([10]; 125 g ai/ha, scale 0-100, read-out: Plant response rating, Deadnettle): 100% | pest or weed control at 16 g/ha ([11]; 16 g ai/ha, scale 0-100, read-out: Plant response rating, Windgrass): 5% | pest or weed control at 31 g/ha ([11]; 31 g ai/ha, scale 0 to 100 (0 no effect, 100 complete control), read-out: Plant response rating, Windgrass): 10% | pest or weed control at 62 g/ha ([11]; 62 g ai/ha, scale 0 to 100 (0 no effect, 100 complete control), read-out: Plant response rating, Windgrass): 50% | pest or weed control at 125 g/ha ([11]; 125 g ai/ha, scale 0 to 100 (0 no effect, 100 complete control), read-out: Plant response rating, Windgrass): 60%

— patent US9695155B2, “Herbicidal substituted pyrimidinyloxy benzene compounds” (E. I. DU PONT DE NEMOURS AND COMPANY, priority 2013, dated 2017)
